Source: US20240252488A1 (KOREA RESEARCH INSTITUTE OF CHEMICAL TECHNOLOGY, priority 2020, published 2024)

Key:
MLKL [1] = target: T1, MLKL (Homo sapiens, UniProt Q8NB16); experiment: MLKL degradation assay in HepG2 cell line (western blot); format: cell-based; parameters: endogenous in cells; host or cells: HepG2 or HaCaT; details: cell line not given; for Degradation assay (Degradation %) 1 μM: compound 1 μM; for Degradation assay (Degradation %) 10 μM: compound 10 μM
T1 sequence (Q8NB16 1-471): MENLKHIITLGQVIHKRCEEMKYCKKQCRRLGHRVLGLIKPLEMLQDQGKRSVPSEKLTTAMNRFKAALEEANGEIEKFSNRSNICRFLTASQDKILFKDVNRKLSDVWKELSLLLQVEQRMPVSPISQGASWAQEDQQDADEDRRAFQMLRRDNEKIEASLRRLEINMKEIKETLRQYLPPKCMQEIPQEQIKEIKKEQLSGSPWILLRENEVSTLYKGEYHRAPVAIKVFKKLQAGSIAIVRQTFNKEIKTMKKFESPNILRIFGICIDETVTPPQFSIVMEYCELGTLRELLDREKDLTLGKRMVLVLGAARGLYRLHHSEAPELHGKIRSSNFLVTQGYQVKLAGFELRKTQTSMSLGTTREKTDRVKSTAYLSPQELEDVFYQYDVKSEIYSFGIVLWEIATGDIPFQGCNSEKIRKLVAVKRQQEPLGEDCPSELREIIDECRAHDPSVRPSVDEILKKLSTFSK
Summary of the method: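 HepG2, cpd final 1 or 10 μM, 20-24 h, 37 °C/5% CO2; RIPA lysis, BCA-normalized, 10-15 μg/lane SDS-PAGE, western blot, ECL read-out.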

FADD−/− Jurkat cells = experiment: Necroptosis inhibition assay, TNF-α-induced necroptosis (CellTiter-Glo 2.0); format: cell-based, human; details: TNF-α 15 ng/mL, FADD−/− Jurkat cells; for Necroptosis inhibition assay (Rescue %) 1 μM: compound 1 μM; for Necroptosis inhibition assay (Rescue %) 10 μM: compound 10 μM
Summary of the method: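 Cmpd 0.1/1/10 μM final, 30 min RT preincubation; TNF-α 15 ng/mL final; 20–24 h, 37° C, 5% CO2. Readout: ATP luminescence (reagent 1:3 in PBS), 0.5 s/well. Cytotoxicity and % necroptosis inhibition calculated from signal.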

MLKL [2] = target: T1, MLKL; experiment: Measurement of binding affinity with MLKL receptor (competitive binding assay, Kd); parameters: made in house; host or cells: HEK 293 cell line (T7 phage in E. coli BL21-derived host is also described)
Summary of the method: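 MLKL was produced in HEK 293 cells and tagged with DNA for detection. Liganded beads were blocked with excess biotin and washed to cut non-specific binding, then compounds (111× DMSO stocks, 0.9% DMSO in assay) competed for binding. Eluate kinase was measured by qPCR for Kd.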

Row | SMILES | Degradation assay (Degradation %) 1 μM (MLKL [1]) [%] | Degradation assay (Degradation %) 10 μM (MLKL [1]) [%] | Necroptosis inhibition assay (Rescue %) 1 μM (FADD−/− Jurkat cells) [%] | Necroptosis inhibition assay (Rescue %) 10 μM (FADD−/− Jurkat cells) [%] | Kd (MLKL [2]) [nM]
1 | Nc1ncc(-c2cnn(C3CCN(CCC4CCN(C(=O)CCc5ccc6c(c5)CN(C5CCC(=O)NC5=O)C6=O)CC4)CC3)c2)nc1C(=O)O[C@@H](C(=O)Nc1ccc(F)cc1)c1ccccc1 (stereo partly drawn) [TDH-475, (R)-2-((4-fluorophenyl)amino)-2-oxo-1-phenylethyl 3-amino-6-(1-(1-(2-(1-(3-(2-(2,6-dioxopiperidin-3-yl)-1-oxoisoindolin-5-yl)propanoyl)piperidin-4-yl)ethyl)piperidin-4-yl)-1H-pyrazol-4-yl)pyrazine-2-carboxylate] | 81.77 | 60.49 | 31.75 | 7.21 | 0.34
2 | Nc1ncc(-c2cnn(C3CCN(CCCN4CCN(C(=O)CCc5ccc6c(c5)CN(C5CCC(=O)NC5=O)C6=O)CC4)CC3)c2)nc1C(=O)O[C@@H](C(=O)Nc1ccc(F)cc1)c1ccccc1 (stereo partly drawn) [TDH-476, (R)-2-((4-fluorophenyl)amino)-2-oxo-1-phenylethyl 3-amino-6-(1-(1-(3-(4-(3-(2-(2,6-dioxopiperidin-3-yl)-1-oxoisoindolin-5-yl)propanoyl)piperazin-1-yl)propyl)piperidin-4-yl)-1H-pyrazol-4-yl)pyrazine-2-carboxylate] | 87.94 | 73.34 | 47.52 | 25.23 | 0.32
3 | COc1ccc(C(=O)N2CCC(CN3CCC(CN4CCC(n5cc(-c6cnc(N)c(C(=O)O[C@@H](C(=O)Nc7ccc(F)cc7)c7ccccc7)n6)cn5)CC4)CC3)CC2)cc1N1CCC(=O)NC1=O [TDH-477, (R)-2-((4-fluorophenyl)amino)-2-oxo-1-phenylethyl 3-amino-6-(1-(1-((1-((1-(3-(2,4-dioxotetrahydropyrimidin-1(2H)-yl)-4-methoxybenzoyl)piperidin-4-yl)methyl)piperidin-4-yl)methyl)piperidin-4-yl)-1H-pyrazol-4-yl)pyrazine-2-carboxylate] | 92.48 | 90.67 | 62.38 | 21.83 | 0.26
4 | COc1ccc(C(=O)N2CCC(CN3CCN(CCCN4CCC(n5cc(-c6cnc(N)c(C(=O)O[C@@H](C(=O)Nc7ccc(F)cc7)c7ccccc7)n6)cn5)CC4)CC3)CC2)cc1N1CCC(=O)NC1=O [TDH-478, (R)-2-((4-fluorophenyl)amino)-2-oxo-1-phenylethyl 3-amino-6-(1-(1-(3-(4-((1-(3-(2,4-dioxotetrahydropyrimidin-1(2H)-yl)-4-methoxybenzoyl)piperidin-4-yl)methyl)piperazin-1-yl)propyl)piperidin-4-yl)-1H-pyrazol-4-yl)pyrazine-2-carboxylate] | 89.29 | 86.88 | 92.11 | 43.19 | 0.26
5 | Nc1ncc(-c2cnn(C3CCN(CCCN4CC5CN(C(=O)CCc6ccc7c(c6)C(=O)N(C6CCC(=O)NC6=O)C7=O)CC5C4)CC3)c2)nc1C(=O)O[C@@H](C(=O)Nc1ccc(F)cc1)c1ccccc1 (stereo partly drawn) [TDH-480, (R)-2-((4-fluorophenyl)amino)-2-oxo-1-phenylethyl 3-amino-6-(1-(1-(3-(5-(3-(2-(2,6-dioxopiperidin-3-yl)-1,3-dioxoisoindolin-5-yl)propanoyl)hexahydropyrrolo[3,4-c]pyrrol-2(1H)-yl)propyl)piperidin-4-yl)-1H-pyrazol-4-yl)pyrazine-2-carboxylate] | 46.42 | 73 | 35.76 | 39.78 | 0.48
6 | Nc1ncc(-c2cnn(C3CCN(CCCC4CCN(c5ccc6c(c5)C(=O)N(C5CCC(=O)NC5=O)C6=O)CC4)CC3)c2)nc1C(=O)O[C@@H](C(=O)Nc1ccc(F)cc1)c1ccccc1 (stereo partly drawn) [TDH-481, (R)-2-((4-fluorophenyl)amino)-2-oxo-1-phenylethyl 3-amino-6-(1-(1-(3-(1-(2-(2,6-dioxopiperidin-3-yl)-1,3-dioxoisoindolin-5-yl)piperidin-4-yl)propyl)piperidin-4-yl)-1H-pyrazol-4-yl)pyrazine-2-carboxylate] | 74.5 | 63.36 | 17.64 | 9.86 | 8.8
7 | Nc1ncc(-c2cnn(C3CCN(CCCC4CCN(C(=O)COc5ccc6c(c5)C(=O)N(C5CCC(=O)NC5=O)C6=O)CC4)CC3)c2)nc1C(=O)O[C@@H](C(=O)Nc1ccc(F)cc1)c1ccccc1 (stereo partly drawn) [TDH-482, (R)-2-((4-fluorophenyl)amino)-2-oxo-1-phenylethyl 3-amino-6-(1-(1-(3-(1-(2-((2-(2,6-dioxopiperidin-3-yl)-1,3-dioxoisoindolin-5-yl)oxy)acetyl)piperidin-4-yl)propyl)piperidin-4-yl)-1H-pyrazol-4-yl)pyrazine-2-carboxylate] | 91.19 | 88.98 | 78.94 | 42.16 | 1.2
8 | Nc1ncc(-c2cnn(C3CCN(CCCC4CCN(C(=O)CNc5ccc6c(c5)C(=O)N(C5CCC(=O)NC5=O)C6=O)CC4)CC3)c2)nc1C(=O)O[C@@H](C(=O)Nc1ccc(F)cc1)c1ccccc1 (stereo partly drawn) [TDH-483, (R)-2-((4-fluorophenyl)amino)-2-oxo-1-phenylethyl 3-amino-6-(1-(1-(3-(1-((2-(2,6-dioxopiperidin-3-yl)-1,3-dioxoisoindolin-5-yl)glycyl)piperidin-4-yl)propyl)piperidin-4-yl)-1H-pyrazol-4-yl)pyrazine-2-carboxylate] | 86.34 | 84.54 | 62.95 | 37.9 | 2.5
9 | Nc1ncc(-c2cnn(C3CCN(CCCC4CCN(C(=O)CCc5ccc6c(c5)C(=O)N(C5CCC(=O)NC5=O)C6=O)CC4)CC3)c2)nc1C(=O)O[C@@H](C(=O)Nc1ccc(F)cc1)c1ccccc1 (stereo partly drawn) [TDH-484, (R)-2-((4-fluorophenyl)amino)-2-oxo-1-phenylethyl 3-amino-6-(1-(1-(3-(1-(3-(2-(2,6-dioxopiperidin-3-yl)-1,3-dioxoisoindolin-5-yl)propanoyl)piperidin-4-yl)propyl)piperidin-4-yl)-1H-pyrazol-4-yl)pyrazine-2-carboxylate] | 89.17 | 91.3 | 66.68 | 37.9 | 0.92
10 | Nc1ncc(-c2cnn(C3CCN(CCCN4CCN(C(=O)COc5ccc6c(c5)C(=O)N(C5CCC(=O)NC5=O)C6=O)CC4)CC3)c2)nc1C(=O)O[C@@H](C(=O)Nc1cccc(Cl)c1)c1ccccc1 (stereo partly drawn) [TDH-485, (R)-2-((3-chlorophenyl)amino)-2-oxo-1-phenylethyl 3-amino-6-(1-(1-(3-(4-(2-((2-(2,6-dioxopiperidin-3-yl)-1,3-dioxoisoindolin-5-yl)oxy)acetyl)piperazin-1-yl)propyl)piperidin-4-yl)-1H-pyrazol-4-yl)pyrazine-2-carboxylate] | 87.46 | 93.6 | 61.51 | 50.03 | 10
